Assay results: ChEMBL document CHEMBL1221225, “A small molecule that directs differentiation of human ESCs into the pancreatic lineage” (Nat Chem Biol, 2009)
pEC50: −log10 of the molar value. Activity calls are given as the source filed them. No cut-off for these calls is given here.

Tests used:
[1] = Induction of human HUES8 cell differentiation into pancreatic progenitor cell assessed as PTF1A expression in cells pregrown in medium containing Wnt, activin, FGF10, KAAD-cyclopamine and retinoic acid at 300 nM after 4 days by immunocytochemistry relative to control; format: functional
[2] = Induction of human HUES8 cell differentiation into pancreatic progenitor cell assessed as NKX6.1 expression in cells pregrown in medium containing Wnt, activin, FGF10, KAAD-cyclopamine and retinoic acid at 300 nM after 4 days by immunocytochemistry relative to control; format: functional
Heart [3] = experiment: Induction of Troponin T expression in CD1 nude mouse heart at 300 nM after 4 days by fluorescent confocal microscopy; format: functional, tissue-based
Heart [4] = experiment: Induction of ISL1 expression in CD1 nude mouse heart at 300 nM after 4 days by fluorescent confocal microscopy; format: functional, tissue-based
Mus musculus [5] = organism: Mus musculus; experiment: Induction of SOX1 expression in CD1 nude mouse ectoderm at 300 nM after 4 days by fluorescent confocal microscopy; format: functional, tissue-based
Homo sapiens [6] = organism: Homo sapiens; experiment: Effect on human HUES8 differentiation into neuronal lineage assessed as c-peptide/GFAP double positive cells at 300 nM after 4 days by immunocytochemistry; format: functional
Homo sapiens [7] = organism: Homo sapiens; experiment: Induction of human HUES8 differentiation into definitive endoderm assessed as expression of SOX17 at 300 nM after 3 days by immunocytochemistry in presence of Wnt3a and activin A; format: functional
Stomach = experiment: Induction of BARX1 expression in CD1 nude mouse stomach at 300 nM after 4 days by fluorescent confocal microscopy; format: functional, tissue-based
HUES8 [8] = experiment: Induction of human HUES8 cell differentiation into pancreatic progenitor cell assessed as increase in SOX9 mRNA expression at 300 nM after 4 days by RT-PCR analysis cells pregrown in medium containing Wnt, activin, FGF10, KAAD-cyclopamine and retinoic acid; format: functional, cell-based
HUES8 [9] = experiment: Induction of human HUES8 cell differentiation into pancreatic progenitor cell assessed as increase in HB9 mRNA expression at 300 nM after 4 days by RT-PCR analysis pregrown in medium containing Wnt, activin, FGF10, KAAD-cyclopamine and retinoic acid; format: functional, cell-based
AV3 = experiment: Induction of mouse AV3 cell differentiation into pancreatic lineage assessed as increase in ptf1a mRNA expression at 300 nM after 6 days by RT-PCR analysis pretreated with 1000 ng/ml recombinant mouse Nodal for 5 days; format: functional, cell-based
[10] = Induction of human HUES9 cell differentiation into pancreatic lineage assessed as increase in Pdx1-expression in cells pregrown with medium containing Wnt, activin, FGF10, KAAD-cyclopamine and retinoic acid at 1 uM after 4 days by Opera high content screening system; format: functional
Homo sapiens [11] = organism: Homo sapiens; experiment: Induction of human HUES8 differentiation into pancreatic lineage assessed as increase in somatostatin-producing endocrine cells at 300 nM after 4 days by immunostaining; format: functional
HUES8 [12] = experiment: Induction of human HUES8 cell differentiation into pancreatic progenitor cell assessed as increase in Pdx1 mRNA expression at 300 nM after 4 days by RT-PCR analysis cells pregrown in medium containing Wnt, activin, FGF10, KAAD-cyclopamine and retinoic acid; format: functional, cell-based
Liver = experiment: Induction of AFP expression in CD1 nude mouse liver at 300 nM after 4 days by fluorescent confocal microscopy; format: functional, tissue-based
Mus musculus [13] = organism: Mus musculus; experiment: Induction of nestin expression in CD1 nude mouse ectoderm at 300 nM after 4 days by fluorescent confocal microscopy; format: functional, tissue-based
HUES8 [14] = experiment: Induction of human HUES8 cell differentiation into pancreatic progenitor cell assessed as increase in HNF6 mRNA expression at 300 nM after 4 days by RT-PCR analysis cells pregrown in medium containing Wnt, activin, FGF10, KAAD-cyclopamine and retinoic acid; format: functional, cell-based
Intestine = experiment: Induction of CDX2 expression in CD1 nude mouse intestine at 300 nM after 4 days by fluorescent confocal microscopy; format: functional, tissue-based
[15] = Induction of human HUES8 differentiation into pancreatic lineage assessed as increase in amylase/CPA double-positive exocrine cells at 300 nM after 4 days by RT-PCR (Rvb (DMSO) = 0.2+/-0.1%); format: functional
Mus musculus [16] = organism: Mus musculus; experiment: Induction of mouse AV3 Pdx1-expressing cell differentiation assessed as increase in Nkx6.1 expression at 300 nM after 6 days by immunohistochemistry pretreated with 1000 ng/ml recombinant mouse Nodal for 5 days; format: functional
HUES8 [17] = experiment: Induction of human HUES8 cell differentiation into pancreatic progenitor cell assessed as increase in NKX6.1 mRNA expression at 300 nM after 4 days by RT-PCR analysis cells pregrown in medium containing Wnt, activin, FGF10, KAAD-cyclopamine and retinoic acid; format: functional, cell-based
Homo sapiens [18] = organism: Homo sapiens; experiment: Induction of C-peptide release in human HUES8 insulin-producing cell at 300 nM after 4 days by ELISA; format: functional
[19] = Induction of human HUES8 differentiation into pancreatic lineage assessed as increase in DBA-positive exocrine cells at 300 nM after 4 days by RT-PCR (reference value: 0.8+/-0.2%); format: functional
[20] = Induction of human HUES8 differentiation into pancreatic lineage assessed as increase in DBA-positive exocrine cells at 300 nM after 4 days by RT-PCR (Rvb (DMSO) = 0%); format: functional
[21] = Induction of insulin production in differentiated human HUES8 cells at 300 nM after 4 days by immunocytochemistry (reference value: 0.2+/-0.1%); format: functional
[22] = Induction of mouse AV3 cell differentiation into pancreatic lineage assessed as increase in Pdx-1 expression at 300 nM after 6 days by immunohistochemistry pretreated with 1000 ng/ml recombinant mouse Nodal for 5 days (reference value: 4.0+/-1.5%); format: functional
[23] = Induction of human HUES9 cell differentiation into pancreatic lineage assessed as increase in Pdx1-expression in cells pregrown with medium containing Wnt, activin, FGF10, KAAD-cyclopamine and retinoic acid after 1 day by Opera high content screening system; format: functional, cell-based; details: HUES9, 24 h
[24] = Induction of human HUES8 cell differentiation into pancreatic progenitor cell assessed as HNF6 expression in cells pregrown in medium containing Wnt, activin, FGF10, KAAD-cyclopamine and retinoic acid at 300 nM after 4 days by immunocytochemistry relative to control; format: functional
HUES8 [25] = experiment: Induction of human HUES8 cell differentiation into pancreatic progenitor cell assessed as increase in PTF1A mRNA expression at 300 nM after 4 days by RT-PCR analysis cells pregrown in medium containing Wnt, activin, FGF10, KAAD-cyclopamine and retinoic acid; format: functional, cell-based
Lung = experiment: Induction of SOX2 expression in CD1 nude mouse lung at 300 nM after 4 days by fluorescent confocal microscopy; format: functional, tissue-based
[26] = Cytotoxicity against human HUES9 cells at 300 nM; format: cell-based; details: hues9, 0.3 µM
HUES2 = experiment: Induction of human HUES2 cell differentiation into pancreatic progenitor cells assessed as increase in Pdx1-expression in cells pregrown with medium containing Wnt, activin, FGF10, KAAD-cyclopamine and retinoic acid at 300 nM after 4 days by Opera high content screening system relative to control; format: functional, cell-based

With CC(C)[C@H]1C(=O)N[C@H](CO)Cc2c[nH]c3cccc(c23)N1C [INDOLACTUM] the Activity [1] was 90.1%, the Activity [2] was 83.5% and the Activity (Heart [3]) was “inactive”. For the same molecule, the Activity (Heart [4]) was “inactive”, the Activity (Mus musculus [5]) was “inactive” and the Activity (Homo sapiens [6]) was “inactive”. The Activity (Homo sapiens [7]) was “inactive”, the Activity (Stomach) was “inactive” and the Activity (HUES8 [8]) was “Active”. The Activity (HUES8 [9]) was “Active”, the Activity (AV3) was “Active” and the Activity [10] was 10.9%. The Activity (Homo sapiens [11]) was “Active”, the Activity (HUES8 [12]) was “Active” and the Activity (Liver) was “inactive”. The Activity (Mus musculus [13]) was “inactive”, the Activity (HUES8 [14]) was “Active” and the Activity (Intestine) was “inactive”. The Activity [15] was 22.7%, the Activity (Mus musculus [16]) was “Active” and the Activity (HUES8 [17]) was “Active”. For the same molecule, the Activity (Homo sapiens [18]) was “Active”, the Activity [19] was 3.6% and the Activity [20] was 3.6%. For the same molecule, the Activity [21] was 0.5%, the Activity [22] was 50% and the pEC50 [23] was 6.85. For the same molecule, the Activity [24] was 91.3%, the Activity (HUES8 [25]) was “Active” and the Activity (Lung) was “inactive”. The Activity [26] was “Non-toxic” and the Activity (HUES2) was “Active”.
